Laboratory results published in patent US10575543B2, “Acetaldehyde precursors” (Firmenich SA, priority 2014, dated 2020).

Experiments:
[1] = Assessment of hydrolysis rate under spray drying feed conditions (pH 8.0 buffer/limonene emulsion); format: physicochemical; settings: pH 8.0 phosphate buffer; for t50 at pH 8.0: precursor dissolved in limonene, emulsion, time to 50% of maximum absorbance
Method: Acetaldehyde precursors suitable for rendering into dry powders must avoid releasing significant levels of acetaldehyde during various stages of processing. In particular they should resist hydrolysis during the preparation of a spray drying feed emulsion, which can be neutral to basic pH and can contain a significant volume fraction of an oil phase.
A pH 8.0 buffer solution was prepared by adding 49.92 g disodium phosphate heptahydrate (CAS 7782-85-6) and 1.93 g monosodium phosphate (CAS 7558-80-7) to 1 L of deionised water. Aliquots of 0.20 g the Example 1-2 preparations were dissolved in 0.8 g of limonene (CAS 5989-25-7) added to 10 g of the buffer solution within a 30 mL Erlenmeyer flask containing a stir bar. The concentration of acetaldehyde in solution was monitored as a function of time using a UV/V is spectrometer probe measuring absorbance at 276 nm. Stirring was periodically stopped to allow oil droplets to rise to the surface and collect an unobscured absorbance reading of the aqueous solution. Release followed mixed zero and first order kinetics. t50 (the time to 50% of the maximum absorbance) values are reported in Table 2. […] Comparative Sample 1 has t50 of 2.1 minutes, which is so short that a person skilled in the art would consider this compound at risk of experiencing a problematic degree of hydrolysis during processing. Example 1 has a much longer t50 value and released acetaldehyde more slowly than Comparative Sample 1.

[2] = Assessment of hydrolysis rate at pH 3.0 (acetaldehyde release, UV absorbance at 276 nm); format: physicochemical; settings: pH 3.0 buffer
Method: Instant beverage applications require rapid hydrolysis of the precursor molecules in order to rapidly release acetaldehyde. Because such beverages might be consumed immediately upon preparation, it is desired for the release to be as rapid as possible.
A pH 3.0 buffer solution was prepared by adding 16.43 g citric acid (CAS 77-92-9) and 4.26 g disodium citrate (CAS 144-33-2) to 1 L of deionized water. Aliquots of the Example 1-2 preparations were added to the buffer solution within a Distek 2100B USP 2 dissolution system stirring at 200 rpm. The concentration of acetaldehyde in solution was monitored as a function of time using a UV/V is spectrometer probe which measured absorbance at 276 nm every 1 second. Results for comparative samples were taken from work by Gassenmeier et al..

| Compound | t50 ([1]; limonene emulsion) | t50 at pH 8.0 [1] | Increase in absorbance at 276 nm (release of acetaldehyde) ([1]; limonene emulsion, over 1 hour) | Rate of acetaldehyde release compared with comparative samples [2] |
| --- | --- | --- | --- | --- |
| CCOC(C)OC(C)=O (centres unmarked) [Comparative Sample 1, 1-ethoxyethyl acetate, reference compound] | 2.1 min | 2.1 min | – | – |
| C=CC1(C)CCC(C(C)(C)OC(C)OCC)O1 (centres unmarked) [Example 1, 5-(2-(1-ethoxyethoxy)propan-2-yl)-2-methyl-2-vinyltetrahydrofuran] | – | >>1 hour | no measurable increase in absorbance over 1 hour | released acetaldehyde faster than Comparative Samples 2-5 |
